# Source: PubChem BioAssay AID1845205 (Molecular Pharmacology Branch, DTP, NCI, 2023)
# Where “and” joins values, the source holds several entries; their conditions need not be identical. Equal entries are not always repeated.
# Tested on: MPNST multicellular tumor spheroids, viability % test/control
# Test: Anticancer human tumor MPNST cell line growth inhibition;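 further: spheroids exposed to agents for seven days after three days of growth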;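 on viability, T/C: luminescence signal used as surrogate for viable cell amount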
# Conditions: for viability, T/C: stronger effect = lower value
# Method in brief: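 Complex tumor spheroids combined malignant cells with endothelial cells and mesenchymal stem cells. DNA-damaging drugs and DNA repair inhibitors were tested alone and in combination, at half-log dilutions down from clinical Cmax (top 10 microM if Cmax unknown), 0.25% DMSO final.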
# [1] = curve of first compound, second compound 1 µM
# [2] = curve of first compound, second compound 3.16 µM
# [3] = curve of first compound, second compound 10 µM
# [4] = curve of first compound, second compound 31.6 µM
# [5] = curve of first compound, second compound 100 µM
# [6] = second compound 1 µM, first compound 0.0316 µM
# [7] = second compound 1 µM, first compound 0.1 µM
# [8] = second compound 1 µM, first compound 0.316 µM
# [9] = second compound 1 µM, first compound 1 µM
# [10] = second compound 1 µM, first compound 3.16 µM
# [11] = second compound 1 µM, first compound 10 µM
# [12] = second compound 3.16 µM, first compound 0.0316 µM
# [13] = second compound 3.16 µM, first compound 0.1 µM
# [14] = second compound 3.16 µM, first compound 0.316 µM
# [15] = second compound 3.16 µM, first compound 1 µM
# [16] = second compound 3.16 µM, first compound 3.16 µM
# [17] = second compound 3.16 µM, first compound 10 µM
# [18] = second compound 10 µM, first compound 0.0316 µM
# [19] = second compound 10 µM, first compound 0.1 µM
# [20] = second compound 10 µM, first compound 0.316 µM
# [21] = second compound 10 µM, first compound 1 µM
# [22] = second compound 10 µM, first compound 3.16 µM
# [23] = second compound 10 µM, first compound 10 µM
# [24] = second compound 31.6 µM, first compound 0.0316 µM
# [25] = second compound 31.6 µM, first compound 0.1 µM
# [26] = second compound 31.6 µM, first compound 0.316 µM
# [27] = second compound 31.6 µM, first compound 1 µM
# [28] = second compound 31.6 µM, first compound 3.16 µM
# [29] = second compound 31.6 µM, first compound 10 µM
# [30] = second compound 100 µM, first compound 0.0316 µM
# [31] = second compound 100 µM, first compound 0.1 µM
# [32] = second compound 100 µM, first compound 0.316 µM
# [33] = second compound 100 µM, first compound 1 µM
# [34] = second compound 100 µM, first compound 3.16 µM
# [35] = second compound 100 µM, first compound 10 µM
compound,measurement,setting,value
Cc1cc(C)c(CNC(=O)c2cc(-c3ccc(CN4CCOCC4)cc3)cc3c2cnn3C2CCCC2)c(=O)[nH]1 + Cn1nnc2c(C(N)=O)ncn2c1=O,IC50,[1],> 10 µM
same,IC50,[2],> 10 µM
same,IC50,[3],> 10 µM
same,IC50,[4],> 10 µM
same,IC50,[5],> 10 µM
same,"viability, T/C",[6],95.9%
same,"viability, T/C",[7],82.8%
same,"viability, T/C",[8],101%
same,"viability, T/C",[9],92.7%
same,"viability, T/C",[10],115%
same,"viability, T/C",[11],98.6%
same,"viability, T/C",[12],141%
same,"viability, T/C",[13],96.7%
same,"viability, T/C",[14],116%
same,"viability, T/C",[15],109%
same,"viability, T/C",[16],103%
same,"viability, T/C",[17],104%
same,"viability, T/C",[18],75.3%
same,"viability, T/C",[19],90.9%
same,"viability, T/C",[20],107%
same,"viability, T/C",[21],91%
same,"viability, T/C",[22],109%
same,"viability, T/C",[23],103%
same,"viability, T/C",[24],103%
same,"viability, T/C",[25],85.8%
same,"viability, T/C",[26],111%
same,"viability, T/C",[27],107%
same,"viability, T/C",[28],103%
same,"viability, T/C",[29],99.5%
same,"viability, T/C",[30],99.1%
same,"viability, T/C",[31],97.5%
same,"viability, T/C",[32],96.9%
same,"viability, T/C",[33],109%
same,"viability, T/C",[34],97.9%
same,"viability, T/C",[35],88.4%
COc1cc(C)[nH]c(=O)c1CN1CCc2c(Cl)cc(C(OC)C3COC3)c(Cl)c2C1=O (stereo not given),"viability, T/C",compound 0.0316 µM,77.2% and 80.5% and 102%
same,"viability, T/C",compound 0.1 µM,79.6% and 90% and 88.8%
same,"viability, T/C",compound 0.316 µM,84.7% and 83.3% and 96%
same,"viability, T/C",compound 1 µM,95.8% and 93.7% and 93.3%
same,"viability, T/C",compound 3.16 µM,89.1% and 96.8% and 98.1%
same,"viability, T/C",compound 10 µM,85.9% and 98.7% and 92.1%
same,IC50,curve of compound,> 10 µM
Cn1ncnc1[C@H]1c2n[nH]c(=O)c3cc(F)cc(c23)N[C@@H]1c1ccc(F)cc1,"viability, T/C",compound 0.00949 µM,84.8% and 85.2% and 73.3%
same,"viability, T/C",compound 0.03 µM,105% and 79.8% and 70.5%
same,"viability, T/C",compound 0.0949 µM,91.6% and 74.7% and 66.9%
same,"viability, T/C",compound 0.3 µM,76.3% and 66% and 60.6%
same,"viability, T/C",compound 0.949 µM,67.1% and 53.2% and 46.5%
same,"viability, T/C",compound 3 µM,62.9% and 51.3% and 43.7%
same,IC50,curve of compound,> 3 µM and 0.763 µM
COc1cc(C)[nH]c(=O)c1CN1CCc2c(Cl)cc(C(OC)C3COC3)c(Cl)c2C1=O (stereo not given) + Cn1nnc2c(C(N)=O)ncn2c1=O,IC50,[1],> 10 µM
same,IC50,[2],> 10 µM
same,IC50,[3],> 10 µM
same,IC50,[4],> 10 µM
same,IC50,[5],> 10 µM
same,"viability, T/C",[6],89.9%
same,"viability, T/C",[7],80.4%
same,"viability, T/C",[8],78.7%
same,"viability, T/C",[9],88.5%
same,"viability, T/C",[10],94.2%
same,"viability, T/C",[11],107%
same,"viability, T/C",[12],87.7%
same,"viability, T/C",[13],84.4%
same,"viability, T/C",[14],122%
same,"viability, T/C",[15],97.4%
same,"viability, T/C",[16],150%
same,"viability, T/C",[17],95.9%
same,"viability, T/C",[18],81.5%
same,"viability, T/C",[19],106%
same,"viability, T/C",[20],101%
same,"viability, T/C",[21],97.8%
same,"viability, T/C",[22],99.9%
same,"viability, T/C",[23],92.8%
same,"viability, T/C",[24],79.1%
same,"viability, T/C",[25],74%
same,"viability, T/C",[26],92.5%
same,"viability, T/C",[27],81.7%
same,"viability, T/C",[28],103%
same,"viability, T/C",[29],82.7%
same,"viability, T/C",[30],84%
same,"viability, T/C",[31],82.7%
same,"viability, T/C",[32],70.7%
same,"viability, T/C",[33],80.6%
same,"viability, T/C",[34],80.7%
same,"viability, T/C",[35],86.5%
Cc1sc2c(c1C)C(c1ccc(Cl)cc1)=NC(CC(=O)Nc1ccc(O)cc1)c1nnc(C)n1-2 (stereo not given),"viability, T/C",compound 0.00949 µM,124% and 109% and 90.5%
same,"viability, T/C",compound 0.03 µM,110% and 117% and 95.1%
same,"viability, T/C",compound 0.0949 µM,92.3% and 99.1% and 60.3%
same,"viability, T/C",compound 0.3 µM,63.9% and 75.2% and 36.5%
same,"viability, T/C",compound 0.949 µM,51.5% and 55.6% and 23.4%
same,"viability, T/C",compound 3 µM,46.8% and 52.1% and 25.7%
